pKd: −log10 of the molar value.
Assays:
[1] = Calcium titration of purified CaMPARI protein, fluorescence in plate reader; type: binding
Protocol: (§1) This Example describes procedures performed to characterize the in vitro properties of the fluorescent proteins. First, CaMPARI protein was expressed from the pRSET plasmid (Life Technologies, Carlsbad, Calif.) in T7 Express E. coli cells cultured for 36 h in 100 mL of autoinduction medium supplemented with 100 mg/L ampicillin. Cell pellets were lysed using B-PER (Pierce, Rockford, Ill.) supplemented with 1 mg/mL lysozyme and 1 min. of sonication. After removing insoluble material by centrifugation, CaMPARI protein was purified by immobilized metal affinity chromatograpy on nickel-charged Profinity resin (Bio-Rad, Hercules, Calif.), washing with 10 mM imidazole and eluting with 100 mM imidazole.
(§2) Using these samples, calcium titrations were used to calculate an apparent affinity of the protein for calcium ions. Aliquots of purified CaMPARI protein were mixed with Ca-EGTA solutions calculated to contain a range of free Ca^2+ ions (Life Technologies) and fluorescence was measured in a plate reader. Furthermore, to observe the photoconversion rate difference+/−calcium, purified CaMPARI in 5 mM CaCl2 or 5 mM EGTA were photoconverted using a 400 nm LED array and green and red fluorescence was measured at various time points to fit an exponential rate to the appearance of red fluorescence or the disappearance of green fluorescence.

[2] = Photoconversion rate difference +/- calcium of purified CaMPARI (400 nm LED array); conditions: purified protein, 5 mM CaCl2 vs 5 mM EGTA
Protocol: as §1, §2

[3] = Fluorescence of purified CaMPARI green and red forms +/- calcium; conditions: purified protein
Protocol: as §1, §2

[4] = system: cultured rat hippocampal neurons; test: Photoconversion with field electrode stimulation in neurons expressing CaMPARI; type: cell-based; conditions: 83 Hz action potentials at the beginning of a 2 s photoconversion pulse
Protocol: First, cultured rat hippocampal neurons were prepared and infected with lentivirus expressing CaMPARI from the human synapsin promoter. The neurons were imaged ten days after infection with a 10× objective before and after various combinations of photoconversion and field electrode-induced action potential firing. Prior to imaging, the neuron cultures were washed with imaging buffer and spontaneous activity was blocked with a drug mix.
Following a 2 s pulse of photoconversion light (1.5 W/cm^2) to CaMPARI-expressing neurons, there was no significant decrease in green fluorescence and a small amount of red fluorescence was visible (FIG. 13A). […] Repeated exposures of CaMPARI-expressing neurons to shorter photoconversion light pulses (0.5 s) led to increasing amounts of red fluorescence signal (FIG. 16A) and red/green ratio (two left bars in FIG. 16B), but the ratio of red-to-green photoconversion between 80 Hz field stimulated and unstimulated neurons remained approximately constant (right-most bars in FIG. 16B). Field electrode stimulation of CaMPARI-expressing neurons (without application of photoconversion light) led to transient decreases in the green fluorescence signal, proportional to the number of induced action potentials (FIG. 17).

[5] = Calcium titration of CaMPARI M13-domain variants, sigmoidal fit; type: binding; conditions: dissociation constant for calcium, sigmoidal fit to calcium titration data
Protocol: (§3) Other CaMPARI variants were constructed and there include V398L, W391F+V398L, W391F, W391L, V398T, G395D, W391Y, W391Y+V398T, V398D, W391F+G395D, W391F+V398H. The variants were made based on substitutions within the M13 domain of CaMPARI that alter the affinity, cooperativity and kinetics and calcium binding. The magnitude of fluorescence change was similar for all variants. Dissociation constants for calcium (Kd) and Hill coefficients were determined from a sigmoidal fit to calcium titration data. Kinetics of fluorescence decay upon calcium release were determined by rapid mixing with EGTA in a stopped-flow device.

[6] = Kinetics of fluorescence decay upon calcium release, rapid mixing with EGTA in stopped-flow device; type: binding
Protocol: as §3

Q: With “CaMPARI v1: isolated polypeptide comprising CaM, EosFP, and M13, SEQ ID NO: 1; Calcium-Modulated Photoactivatable Ratiometric Integrator” as the substance, how does the pKd ([1]; purified protein, without N-terminal NES, estimated from fluorescence change with increasing calcium, read-out: dissociation constant (Kd)) read?
A: The pKd was 6.89.

Q: And the pKd ([1]; with nuclear export signal (NES) added to the N-terminus, read-out: Kd)?
A: Its pKd is 6.97.

Q: And the “faster green-to-red photoconversion rate in the presence of calcium” value [2]?
A: Its value is 29 fold.

Q: And the “green form less fluorescent in the presence of calcium” value ([3]; green form)?
A: Its value is 8 fold.

Q: What about the “red form less fluorescent in the presence of calcium” value ([3]; red form) of the same substance?
A: The value was 34 fold.

Q: And the “more green-to-red photoconversion for 160 action potentials relative to 0” value [4]?
A: The value was “up to 12 fold”.

Q: What about the pKd [5] of the same substance?
A: The pKd was 6.95.

Q: And the koff [6]?
A: Its koff is 0.25 s⁻¹.

Source: patent US10041935B2, “Identification of olfactory receptors sensitive to different odorants” (New York University, priority 2013, dated 2018)
